Experimental findings from patent US9993462B2, “Hydantoin derivative-containing pharmaceutical composition” (Chugai Seiyaku Kabushiki Kaisha, priority 2014, dated 2018) are described below.

The subject of test [1] is rabbit articular chondrocytes. As to the kind of experiment: Suppression of terminal differentiation of rabbit articular chondrocytes (alkaline phosphatase and alizarin red staining). The format is cell-based. The conditions noted are these: BMP-2 100 ng/mL, Compound 7 10^−7 to 10^−5 mol/L, PTH(1-34) 10^−10 to 10^−7 mol/L.
Protocol: NZW rabbits (4-week old, Oriental Yeast Co., Ltd.) were euthanized, and then the articular cartilage of the lower leg bone was collected, and transferred to a 50-mL test tube (Nippon Becton Dickinson Company). PBS (Nacalai Tesque, Inc.) containing 1% trypsin (Wako Pure Chemical Industries, Ltd.) was added to this, and the soft tissue was digested at 37° C. for one hour. This was followed by centrifugation at 1,200 rpm for five minutes, then supernatant was removed and PBS(−) was added to suspend the cartilage tissue. This was centrifuged at 1,200 rpm for five minutes, followed by removal of the supernatant, and washed three times by suspending in PBS(−). This was centrifuged at 1,200 rpm for five minutes, and then the cell pellet was digested by treatment with DMEM (Life Technologies Japan, Ltd.) containing 0.2% Type II collagenase (CLS-2, Worthington Biochemical Corp.) at 37° C. for three hours. Fetal bovine serum (Life Technologies Japan, Ltd.) was added at 10% v/v to stop the reaction, and this was vigorously pipetted using a 10-mL pipette (Nippon Becton Dickinson Company) to isolate the chondrocytes. This was centrifuged at 1,200 rpm for five minutes, followed by removal of the supernatant, and washed three times by suspending in 10% FCS-containing DMEM, and the chondrocytes were seeded at 1×10^4 cells/well on an I-type collagen-coated 96-well culture plate (AGC TECHNO GLASS CO., LTD.). Medium exchange was performed three times a week; and after the cells reached confluency, they were cultured in DMEM containing 100 μg/mL L-ascorbic acid phosphate magnesium salt n-hydrate (Wako Pure Chemical Industries, Ltd.), 10 mmol/L β-glycerophosphate pentahydrate (Wako Pure Chemical Industries, Ltd.) and 10% FCS. The following conditions were used to culture the cells, and alkaline phosphatase staining (cultured for 14 days) and alizarin red staining (cultured for 21 days) were performed to evaluate terminal differentiation of chondrocytes.
Alkaline phosphatase staining was performed by discarding the medium, then washing the chondrocytes once with 200 mmol/L Tris-HCl pH8.2 buffer, staining the cells according to the protocol supplied with the alkaline phosphatase staining kit (Vector Red Alkaline Phosphatase Substrate Kit I, Vector Laboratories, Inc.), and taking photographs with an inverted microscope (Nikon Corporation) (4× objective).
Alizarin red staining was performed by discarding the medium, then washing the chondrocytes twice with PBS, fixing the cells using 100% ethanol (Wako Pure Chemical Industries Ltd.) for 15 minutes, discarding the ethanol, and then staining with 1% alizarin red S (Wako Pure Chemical Industries Ltd.) for 15 minutes, followed by washing with distilled water; and photographs were taken with an inverted microscope.
Test [2] relates to ovariectomized rats. As to the kind of experiment: Bone mineral density after six weeks of repeated administration to ovariectomized rats. The format is in vivo, rat. The note with it: once a day for six weeks, hPTH(1-34) 0.9 nmol/kg subcutaneous. On the procedure:
Female Crl:CD(SD) rats obtained from Charles River Japan, Inc. were acclimated for one week or longer under standard laboratory conditions of 20° C. to 26° C. and 35% to 75% humidity, and then used in experiments. The rats had free access to tap water and a standard rodent diet (CE-2) (Clea Japan Inc.) containing 1.1% calcium, 1.0% phosphoric acid, and 250 IU/100 g vitamin D3.
Twelve-week old rats were subjected to removal of both ovaries by surgery (OVX) or to sham surgery (Sham). After the body weight was determined in the fourth week after surgery, the rats were divided into groups so that the average body weight of each group of six rats would be even. From the subsequent day after group division, each rat was subjected to repeated administration once a day for six weeks. The solvent for oral administration (vehicle) and the solvent for subcutaneous administration (PC buffer) were respectively administered orally and subcutaneously to rats of the Sham-Control group. Vehicle and PC buffer were orally and subcutaneously administered to rats of the OVX-Control group, respectively. To rats of OVX-Compound 7, the above-mentioned Compound 7 dissolved in the vehicle was orally administered at a dose of 30 mg/kg, and PC buffer was administered subcutaneously. To rats of the OVX-hPTH(1-34) group, the vehicle was orally administered, and hPTH(1-34) dissolved in PC buffer was subcutaneously administered at a dose of 0.9 nmol/kg.
The level of AUC (area under the curve for blood concentration vs. time) was the same as when 20 μg of Forteo®, a therapeutic agent clinically used for osteoporosis, is administered to humans when the administration dose for rats was set to 0.9 nmol/kg. The administration doses were 5 mL/kg for oral administration and 1 mL/kg for subcutaneous administration in all groups. The vehicle used was a composition prepared from 10% dimethyl sulfoxide (Wako Pure Chemical Industries, Ltd.), 10% Kolliphor EL (Sigma-Aldrich Japan), and 10% hydroxypropyl-β-cyclodextrin (Nihon Shokuhin Kako Co., Ltd), whose pH was adjusted to 10 using glycine (Wako Pure Chemical Industries, Ltd.) and sodium hydroxide (Wako Pure Chemical Industries, Ltd.). The PC buffer used was a composition prepared from 25 mmol/L phosphate-citrate buffer, 100 mmol/L NaCl, and 0.05% Tween80, adjusted to pH 5.0. […] The bone mineral densities of the lumbar spine and femur were determined using a dual X-ray bone mineral scanner (DCS-600EX, Aloka). The lumbar spine bone mineral density was determined by measuring the second to fourth lumbar vertebrae; and the femur bone mineral density was determined by vertically dividing the femur into ten parts, and measuring the three parts at the distal end of the knees. […]

Test [3] deals with human articular chondrocytes. As to the kind of experiment: Proteoglycan synthesis by human articular chondrocytes (35S-sulfate incorporation). The format is cell-based. The conditions noted are these: cultured for 13 days. On the procedure:
After purchase of cryopreserved human articular chondrocytes (Lot 2867, Cell Applications Inc.), the cells were thawed in a 37° C. water bath, 15 mL of Basal Medium supplemented with 10% Growth Supplement (Growth Medium, Cell Applications Inc.) was placed in a T75 culture flask (CORNING, Corning Japan K. K.) to culture the cells, and exchanged the next day with 15 mL of Growth Medium; and the cells were cultured for three days. Growth Medium was then removed, and HBSS (Cell Applications Inc.) was used to wash the chondrocyte layer. With addition of 1 mL of trypsin/EDTA solution (Cell Applications Inc.), this was left to stand at room temperature for approximately five minutes, and chondrocytes were detached from the flask. With 10 mL of Neutralization solution (Cell Applications Inc.) added, Bulker-Turk hemocytometer was used to determine the cell count, and the cells were then transferred to a 15-mL test tube for centrifugation (1,200 rpm for five minutes, Tomy Seiko Co., Ltd.) to produce a chondrocyte pellet. The supernatant was discarded, and the cells were placed in a 1.2% sodium alginate solution (25 mmol/L HEPES/150 mmol/L sodium chloride solution, pH7.0) at 2×10^6 cells/mL. This was drawn into a 1-mL syringe (Terumo Corporation) equipped with a 22G injection needle, five drops were added to each well of a 24-well plate (Corning Japan K.K.) containing 2 mL of 102 mmol/L aqueous CaCl2 solution, and this was left to stand for five minutes to form beads. Subsequently, this was washed three times with a 150 mmol/L sodium chloride solution and incubated for one day in Growth Medium, and the medium was exchanged with Basal Medium supplemented with 1% Growth supplement (Cell Applications Inc.). In this procedure, the following factors were added to the medium, and the cells were cultured for 13 days with three times of medium exchange performed per week.
On day 12 of culturing, ^35S-labeled sulfuric acid (PerkinElmer Japan Co., Ltd.) was added at 370 kBq/well, and the medium was collected 24 hours later into a test tube and stored at 4° C. To the alginate gel, a 55 mmol/L sodium citrate solution (Nacalai Tesque, Inc.; 1 mL/well) was added, and this was incubated at 37° C. for ten minutes for solation. This was collected into a microtube (Eppendorf AG) and then centrifuged (1,200 rpm, five minutes) to produce a chondrocyte pellet. […] The glass filter was transferred to a liquid scintillation counter vial, 5 mL of scintillator (Hionic-Fluor, PerkinElmer Japan Co., Ltd.) was added and radioactivity was measured on a liquid scintillation counter (TRI-CARB, PerkinElmer Japan Co., Ltd.).
The remaining 0.1 mL of the digested solution was used for DNA quantification. […]

For the substance “hPTH(1-34): Human PTH(1-34) peptide purchased from Peptide Institute, Inc.; positive control [reference compound]”, the “alkaline phosphatase activity (alkaline phosphatase staining)” value in test [1] (cultured for 14 days) was “suppressed alkaline phosphatase activity in a concentration-dependent manner”. Moreover, the “alizarin red staining property (calcification)” value in test [1] (cultured for 21 days) is listed as “suppressed the alizarin staining property in a concentration-dependent manner”. Moreover, the “percentage of increase in femur bone mineral density with respect to the OVX-Control group” value in test [2] (Compound 7 30 mg/kg oral) is 8%. The “percentage of increase in lumbar spine bone mineral density with respect to the OVX-Control group” value in test [2] worked out at 12%. Besides, the “radioactivity (proteoglycan synthesis, cpm/μg DNA) relative to the vehicle control” value in test [3] (PTH(1-34) 10^−8 mol/L) came to 6 fold.

Consider “TGF-β1: Positive control for proteoglycan synthesis, 10 ng/mL [reference compound]”, for which the “radioactivity (proteoglycan synthesis, cpm/μg DNA) relative to the vehicle control” value in test [3] (TGF-β1 10 ng/mL) was found to be 10 fold.
